Assay: cn = amount concentration of the nth substance listed, in mol/dm3
Conditions: Ring tensiometer

CCCCCCCCCCCCCCCCS(=O)(=O)[O-].[Na+] [sodium hexadecylsulfonate] + O
surface tension liquid-gas [mN/m]
Conditions	293 K	303 K	313 K
c1 = 1e-08	72.8	71.2	69.6
c1 = 1e-07	72.8	71.19	69.6
c1 = 1e-06	72.7	71.15	69.55
c1 = 3.98e-06	72.6	70.99	69.42
c1 = 5.01e-06	72.5	70.89	69.31
c1 = 6.03e-06	72.4	70.77	69.21
c1 = 7.94e-06	72.3	70.69	69.09
c1 = 1e-05	72.2	70.54	68.99
c1 = 2e-05	71.6	69.98	68.41
c1 = 6.03e-05	69	68.49	67.04
c1 = 0.0001	66.2	65.54	64.15
c1 = 0.0002	59.15	58.94	58.84
c1 = 0.000603	43.23	43.17	43.12
c1 = 0.000741	40.28	40.07	39.97
c1 = 0.000891	–	38.59	38.55

O [water] + CCCCCCCCCCCCCCCCS(=O)(=O)[O-].[Na+]
c2 = 0
Conditions	surface tension liquid-gas [mN/m]
293 K	72.8
303 K	71.2
313 K	69.6

O [water] + CCCCCCCCCCCCCCCC[n+]1ccccc1.[Br-]
c2 = 0
Conditions	surface tension liquid-gas [mN/m]
293 K	72.8
303 K	71.2
313 K	69.6

O [water] + CCCCCCCCCCCC[N+](C)(C)Cc1ccccc1.[Br-]
c2 = 0
Conditions	surface tension liquid-gas [mN/m]
293 K	72.8
303 K	71.2
313 K	69.6

CCCCCCCCCCCCN(C)CC(=O)[O-].[Na+] [sodium laurylsarcosinate] + O
surface tension liquid-gas [mN/m]
Conditions	293 K	303 K	313 K
c1 = 1e-07	72.4	71.19	69.59
c1 = 5.01e-07	72.2	71.15	69.56
c1 = 1e-06	72	71.1	69.52
c1 = 5.01e-06	71.6	70.72	69.2
c1 = 1e-05	71.4	70.28	68.83
c1 = 5.01e-05	69	67.57	66.49
c1 = 0.0001	65.5	65.33	64.45
c1 = 0.000501	48.6	48.46	48.32
c1 = 0.000631	46.3	46.1	46
c1 = 0.000708	44.9	44.03	43.82
c1 = 0.000794	43.6	42.91	42.71
c1 = 0.000891	42.3	41.85	41.15
c1 = 0.001	41.1	40.33	39.51
c1 = 0.002	32.9	32.39	31.83
c1 = 0.00316	28.3	28	27.5
c1 = 0.00398	26.9	26.65	26.12
c1 = 0.00501	26.5	26.45	25.48
c1 = 0.01	26.5	26.45	25.42

O [water] + CCCCCCCCCCCCCC[N+](C)(C)C.[Br-]
c2 = 0
Conditions	surface tension liquid-gas [mN/m]
293 K	72.8
313 K	69.6

O [water] + CCCCCCCCCCCCN(C)CC(=O)[O-].[Na+]
c2 = 0
Conditions	surface tension liquid-gas [mN/m]
293 K	72.8
303 K	71.2
313 K	69.6

From the NIST ThermoML archive (doi:10.1016/j.fluid.2012.01.014)
